± gives the expanded uncertainty stated by the source.
Conditions: Liquid; for mass density: Vibrating tube method; for viscosity: Concentric cylinders viscometry

## CCCC[n+]1ccc(C)cc1.F[B-](F)(F)F [1-butyl-4-methylpyridinium tetrafluoroborate]
278.16 K, 101.33 kPa
  mass density: 1202.41 ± 2.7 kg/m3
283.13 K, 2389 kPa
  mass density: 1200.77 ± 2.2 kg/m3
283.14 K, 99418 kPa
  mass density: 1237.54 ± 2.9 kg/m3
283.15 K, 101.33 kPa
  viscosity: 765.72 ± 41 mPa·s
283.15 K, 60042 kPa
  mass density: 1223.77 ± 2.6 kg/m3
283.15 K, 79648 kPa
  mass density: 1230.82 ± 2.7 kg/m3
283.15 K, 89923 kPa
  mass density: 1234.36 ± 2.8 kg/m3
283.16 K, 49953 kPa
  mass density: 1219.99 ± 2.5 kg/m3
283.16 K, 69924 kPa
  mass density: 1227.37 ± 2.6 kg/m3
283.17 K, 101.33 kPa
  mass density: 1198.9 ± 2.7 kg/m3
283.17 K, 20156 kPa
  mass density: 1208.22 ± 2.3 kg/m3
283.17 K, 29957 kPa
  mass density: 1212.19 ± 2.4 kg/m3
283.17 K, 39808 kPa
  mass density: 1216.08 ± 2.5 kg/m3
283.2 K, 5533 kPa
  mass density: 1202.11 ± 2.3 kg/m3
283.2 K, 10148 kPa
  mass density: 1204.06 ± 2.3 kg/m3
293.13 K, 2593 kPa
  mass density: 1194.15 ± 2.2 kg/m3
293.14 K, 99354 kPa
  mass density: 1231.77 ± 2.8 kg/m3
293.15 K, 101.33 kPa
  viscosity: 338.59 ± 16 mPa·s
293.15 K, 69958 kPa
  mass density: 1221.46 ± 2.6 kg/m3
293.15 K, 79965 kPa
  mass density: 1225.08 ± 2.7 kg/m3
293.15 K, 90001 kPa
  mass density: 1228.6 ± 2.8 kg/m3
293.16 K, 101.33 kPa
  mass density: 1191.79 ± 2.6 kg/m3
293.16 K, 5220 kPa
  mass density: 1195.31 ± 2.2 kg/m3
293.16 K, 49933 kPa
  mass density: 1213.87 ± 2.5 kg/m3
293.16 K, 59929 kPa
  mass density: 1217.71 ± 2.6 kg/m3
293.17 K, 10236 kPa
  mass density: 1197.5 ± 2.3 kg/m3
293.17 K, 19941 kPa
  mass density: 1201.67 ± 2.3 kg/m3
293.17 K, 29914 kPa
  mass density: 1205.84 ± 2.4 kg/m3
293.17 K, 39693 kPa
  mass density: 1209.82 ± 2.4 kg/m3
298.13 K, 101.33 kPa
  mass density: 1188.41 ± 2.6 kg/m3
298.15 K, 101.33 kPa
  viscosity: 236.97 ± 11 mPa·s
298.15 K, 1003 kPa
  mass density: 1190.06 ± 2.2 kg/m3
298.15 K, 5005 kPa
  mass density: 1191.86 ± 2.2 kg/m3
298.15 K, 10002 kPa
  mass density: 1194.09 ± 2.3 kg/m3
298.15 K, 19998 kPa
  mass density: 1198.45 ± 2.3 kg/m3
298.15 K, 29945 kPa
  mass density: 1202.67 ± 2.4 kg/m3
298.15 K, 39923 kPa
  mass density: 1206.79 ± 2.4 kg/m3
298.15 K, 49991 kPa
  mass density: 1210.83 ± 2.5 kg/m3
298.15 K, 60002 kPa
  mass density: 1214.72 ± 2.5 kg/m3
298.15 K, 70001 kPa
  mass density: 1218.49 ± 2.6 kg/m3
298.15 K, 79994 kPa
  mass density: 1222.14 ± 2.7 kg/m3
298.15 K, 90002 kPa
  mass density: 1225.68 ± 2.8 kg/m3
298.15 K, 99998 kPa
  mass density: 1229.1 ± 2.8 kg/m3
303.15 K, 101.33 kPa
  viscosity: 171.04 ± 7.5 mPa·s
313.13 K, 101.33 kPa
  mass density: 1178.11 ± 2.6 kg/m3
313.15 K, 101.33 kPa
  viscosity: 96.18 ± 4 mPa·s
313.15 K, 59740 kPa
  mass density: 1205.47 ± 2.5 kg/m3
313.16 K, 2707 kPa
  mass density: 1180.63 ± 2.2 kg/m3
313.16 K, 20303 kPa
  mass density: 1188.77 ± 2.3 kg/m3
313.16 K, 29913 kPa
  mass density: 1193.03 ± 2.3 kg/m3
313.16 K, 49943 kPa
  mass density: 1201.51 ± 2.5 kg/m3
313.16 K, 69933 kPa
  mass density: 1209.44 ± 2.6 kg/m3
313.16 K, 89952 kPa
  mass density: 1216.83 ± 2.7 kg/m3
313.16 K, 99473 kPa
  mass density: 1220.15 ± 2.8 kg/m3
313.17 K, 5339 kPa
  mass density: 1181.88 ± 2.2 kg/m3
313.17 K, 10173 kPa
  mass density: 1184.14 ± 2.2 kg/m3
313.17 K, 39937 kPa
  mass density: 1197.34 ± 2.4 kg/m3
313.17 K, 79710 kPa
  mass density: 1213.11 ± 2.6 kg/m3
323.15 K, 101.33 kPa
  viscosity: 58.53 ± 2.4 mPa·s
333.13 K, 1547 kPa
  mass density: 1166.3 ± 2.2 kg/m3
333.13 K, 39448 kPa
  mass density: 1184.41 ± 2.4 kg/m3
333.14 K, 101.33 kPa
  mass density: 1164.59 ± 2.6 kg/m3
333.14 K, 49914 kPa
  mass density: 1188.99 ± 2.4 kg/m3
333.14 K, 60043 kPa
  mass density: 1193.26 ± 2.5 kg/m3
333.15 K, 101.33 kPa
  viscosity: 38.29 ± 1.6 mPa·s
333.15 K, 5146 kPa
  mass density: 1168.12 ± 2.2 kg/m3
333.15 K, 29917 kPa
  mass density: 1180.08 ± 2.3 kg/m3
333.15 K, 69942 kPa
  mass density: 1197.26 ± 2.5 kg/m3
333.16 K, 19866 kPa
  mass density: 1175.35 ± 2.2 kg/m3
333.16 K, 79463 kPa
  mass density: 1200.96 ± 2.6 kg/m3
333.16 K, 89996 kPa
  mass density: 1204.89 ± 2.6 kg/m3
333.17 K, 9837 kPa
  mass density: 1170.46 ± 2.2 kg/m3
333.17 K, 99595 kPa
  mass density: 1208.3 ± 2.7 kg/m3
343.14 K, 101.33 kPa
  mass density: 1157.92 ± 2.5 kg/m3
343.15 K, 101.33 kPa
  viscosity: 26.48 ± 1.1 mPa·s
353.13 K, 59133 kPa
  mass density: 1180.36 ± 2.4 kg/m3
353.14 K, 2498 kPa
  mass density: 1152.85 ± 2.1 kg/m3
353.14 K, 5035 kPa
  mass density: 1154.22 ± 2.1 kg/m3
353.14 K, 9690 kPa
  mass density: 1156.69 ± 2.2 kg/m3
353.14 K, 20367 kPa
  mass density: 1162.21 ± 2.2 kg/m3
353.14 K, 29942 kPa
  mass density: 1166.97 ± 2.3 kg/m3
353.14 K, 39870 kPa
  mass density: 1171.71 ± 2.3 kg/m3
353.14 K, 49991 kPa
  mass density: 1176.35 ± 2.4 kg/m3
353.14 K, 70001 kPa
  mass density: 1184.93 ± 2.5 kg/m3
353.15 K, 101.33 kPa
  viscosity: 19.17 ± 0.79 mPa·s
353.15 K, 89993 kPa
  mass density: 1192.71 ± 2.6 kg/m3
353.16 K, 79945 kPa
  mass density: 1188.9 ± 2.5 kg/m3
353.16 K, 98529 kPa
  mass density: 1195.8 ± 2.6 kg/m3
363.15 K, 101.33 kPa
  viscosity: 14.41 ± 0.6 mPa·s
373.13 K, 59930 kPa
  mass density: 1168.03 ± 2.4 kg/m3
373.14 K, 2866 kPa
  mass density: 1138.93 ± 2.1 kg/m3
373.14 K, 40385 kPa
  mass density: 1158.91 ± 2.3 kg/m3
373.14 K, 49993 kPa
  mass density: 1163.5 ± 2.3 kg/m3
373.14 K, 69984 kPa
  mass density: 1172.37 ± 2.4 kg/m3
373.15 K, 101.33 kPa
  viscosity: 11.19 ± 0.46 mPa·s
373.15 K, 5031 kPa
  mass density: 1140.17 ± 2.1 kg/m3
373.15 K, 29936 kPa
  mass density: 1153.67 ± 2.2 kg/m3
373.15 K, 79614 kPa
  mass density: 1176.31 ± 2.5 kg/m3
373.15 K, 90002 kPa
  mass density: 1180.33 ± 2.5 kg/m3
373.15 K, 99124 kPa
  mass density: 1183.64 ± 2.6 kg/m3
373.16 K, 9772 kPa
  mass density: 1142.85 ± 2.1 kg/m3
373.17 K, 20168 kPa
  mass density: 1148.55 ± 2.2 kg/m3
393.14 K, 99382 kPa
  mass density: 1171.13 ± 2.5 kg/m3
393.15 K, 10459 kPa
  mass density: 1129.2 ± 2.1 kg/m3
393.15 K, 20029 kPa
  mass density: 1134.74 ± 2.1 kg/m3
393.15 K, 90001 kPa
  mass density: 1167.72 ± 2.5 kg/m3
393.16 K, 2068 kPa
  mass density: 1124.13 ± 2.1 kg/m3
393.16 K, 5306 kPa
  mass density: 1126.11 ± 2.1 kg/m3
393.16 K, 29942 kPa
  mass density: 1140.22 ± 2.2 kg/m3
393.17 K, 39803 kPa
  mass density: 1145.4 ± 2.2 kg/m3
393.17 K, 49942 kPa
  mass density: 1150.46 ± 2.3 kg/m3
393.17 K, 70000 kPa
  mass density: 1159.64 ± 2.4 kg/m3
393.17 K, 80173 kPa
  mass density: 1163.89 ± 2.4 kg/m3
393.18 K, 59764 kPa
  mass density: 1155.09 ± 2.3 kg/m3

Reference: the NIST ThermoML archive (doi:10.1016/j.jct.2012.02.018)
